Reference: ChEMBL document CHEMBL1909046, “DrugMatrix in vitro pharmacology data”

Legend:
[1] = target: T1, Alpha-2C adrenergic receptor (Homo sapiens, UniProt P18825); assay: DRUGMATRIX: Adrenergic Alpha-2C radioligand binding (ligand: [3H] MK-912); format: cell membranes, Sf9, Membrane; conditions: sf9
T1 sequence (P18825 whole entry): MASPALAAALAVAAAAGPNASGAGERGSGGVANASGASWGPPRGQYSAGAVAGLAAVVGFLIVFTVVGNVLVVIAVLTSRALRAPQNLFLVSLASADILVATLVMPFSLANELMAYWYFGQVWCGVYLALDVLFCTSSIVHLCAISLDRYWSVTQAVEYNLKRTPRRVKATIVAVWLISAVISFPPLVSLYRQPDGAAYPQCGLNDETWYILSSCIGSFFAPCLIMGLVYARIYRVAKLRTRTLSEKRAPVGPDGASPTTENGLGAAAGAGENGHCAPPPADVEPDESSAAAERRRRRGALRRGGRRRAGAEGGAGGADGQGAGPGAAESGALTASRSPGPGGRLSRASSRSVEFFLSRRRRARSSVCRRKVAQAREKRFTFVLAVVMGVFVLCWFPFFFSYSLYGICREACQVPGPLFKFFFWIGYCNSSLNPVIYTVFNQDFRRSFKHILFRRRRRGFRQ

Melanocortin receptor 3 = Melanocortin receptor 3 (Homo sapiens, UniProt P41968); format: cell membranes, Membrane; conditions: hek293; also: in other assays of this panel Not Active means under 50% inhibition at 10 µM
Chain of Melanocortin receptor 3 (P41968 whole entry): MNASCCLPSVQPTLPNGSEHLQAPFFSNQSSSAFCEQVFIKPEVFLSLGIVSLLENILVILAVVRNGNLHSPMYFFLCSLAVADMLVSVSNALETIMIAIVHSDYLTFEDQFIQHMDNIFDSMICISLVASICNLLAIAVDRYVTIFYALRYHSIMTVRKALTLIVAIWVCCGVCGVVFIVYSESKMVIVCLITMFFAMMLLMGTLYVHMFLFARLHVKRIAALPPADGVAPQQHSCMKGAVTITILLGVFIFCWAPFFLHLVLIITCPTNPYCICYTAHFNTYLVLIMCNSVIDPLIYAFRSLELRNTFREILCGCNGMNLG

[2] = target: T2, Neuropeptide Y receptor type 2 (Homo sapiens, UniProt P49146); format: cell membranes, Membrane; conditions: kan-ts; also: in other assays of this panel Not Active means under 50% inhibition at 10 µM
T2 sequence (P49146 whole entry): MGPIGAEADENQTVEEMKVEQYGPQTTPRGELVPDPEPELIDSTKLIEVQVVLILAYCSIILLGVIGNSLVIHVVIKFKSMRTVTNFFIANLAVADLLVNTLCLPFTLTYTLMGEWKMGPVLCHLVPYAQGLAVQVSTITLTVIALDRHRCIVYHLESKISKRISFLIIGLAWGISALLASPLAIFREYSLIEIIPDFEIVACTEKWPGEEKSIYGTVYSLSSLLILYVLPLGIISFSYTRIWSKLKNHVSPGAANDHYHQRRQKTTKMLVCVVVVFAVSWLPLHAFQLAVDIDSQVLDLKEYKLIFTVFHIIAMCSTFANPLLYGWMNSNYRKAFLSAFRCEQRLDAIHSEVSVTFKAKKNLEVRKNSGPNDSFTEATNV

[3] = target: cGMP-specific 3',5'-cyclic phosphodiesterase (Homo sapiens, UniProt O76074); assay: DRUGMATRIX: Phosphodiesterase PDE5 enzyme inhibition (substrate: [3H]cGMP + cGMP); format: tissue-based; conditions: platelet; Not Active = under 50% inhibition at 10 µM
Cathepsin G = target: T3, Cathepsin G (Homo sapiens, UniProt P08311); format: tissue-based; conditions: neutrophil;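 also: inhibition of Cathepsin G enzyme activity, tested on an AMC-conjugated peptide substrate; in other assays of this panel Not Active means under 50% inhibition at 10 µM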
T3 sequence (P08311 whole entry): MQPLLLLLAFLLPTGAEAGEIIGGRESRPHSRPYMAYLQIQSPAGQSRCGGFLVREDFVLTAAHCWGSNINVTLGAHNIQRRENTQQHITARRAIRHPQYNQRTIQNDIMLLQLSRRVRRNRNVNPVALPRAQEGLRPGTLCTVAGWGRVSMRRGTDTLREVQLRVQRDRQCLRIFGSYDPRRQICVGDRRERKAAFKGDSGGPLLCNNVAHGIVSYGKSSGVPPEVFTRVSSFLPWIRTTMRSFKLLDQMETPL

[4] = target: Mitogen-activated protein kinase 3 (Homo sapiens, UniProt P27361); assay: DRUGMATRIX: Protein Serine/Threonine Kinase, ERK1 enzyme inhibition (substrate: Myelin Basic Protein); design: species or system Escherichia coli; conditions: Not Active = under 50% inhibition at 10 µM
Chain of Mitogen-activated protein kinase 3 (P27361 whole entry): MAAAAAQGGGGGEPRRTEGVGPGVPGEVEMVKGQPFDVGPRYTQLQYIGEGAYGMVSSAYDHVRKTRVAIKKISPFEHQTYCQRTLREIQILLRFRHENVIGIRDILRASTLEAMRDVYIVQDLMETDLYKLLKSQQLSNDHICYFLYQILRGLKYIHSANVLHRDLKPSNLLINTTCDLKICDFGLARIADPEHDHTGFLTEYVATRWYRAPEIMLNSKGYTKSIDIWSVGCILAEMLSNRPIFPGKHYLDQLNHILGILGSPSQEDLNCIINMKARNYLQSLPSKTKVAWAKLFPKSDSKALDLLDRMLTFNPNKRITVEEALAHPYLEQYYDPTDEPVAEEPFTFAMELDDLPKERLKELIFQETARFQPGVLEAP

Adenosine receptor A2a = Adenosine receptor A2a (Homo sapiens, UniProt P29274); assay: DRUGMATRIX: Adenosine A2A radioligand binding (ligand: […]); format: cell membranes, HEK293, Membrane; conditions: hek293; Not Active = under 50% inhibition at 10 µM
Chain of Adenosine receptor A2a (P29274 whole entry): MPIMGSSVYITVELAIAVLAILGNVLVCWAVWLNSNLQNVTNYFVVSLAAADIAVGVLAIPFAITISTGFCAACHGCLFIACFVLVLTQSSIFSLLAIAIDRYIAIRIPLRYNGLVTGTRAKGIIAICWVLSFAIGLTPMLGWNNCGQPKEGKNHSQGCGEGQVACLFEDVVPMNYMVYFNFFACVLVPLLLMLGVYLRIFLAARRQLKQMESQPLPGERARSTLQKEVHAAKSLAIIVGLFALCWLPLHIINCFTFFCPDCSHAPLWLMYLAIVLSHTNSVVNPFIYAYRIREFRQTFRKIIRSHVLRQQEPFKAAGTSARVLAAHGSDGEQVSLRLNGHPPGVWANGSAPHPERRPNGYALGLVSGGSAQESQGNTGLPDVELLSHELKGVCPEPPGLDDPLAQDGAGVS

Cc1c(F)c(N2CCNC(C)C2)cc2c1c(=O)c(C(=O)O)cn2C1CC1 (stereo not drawn) [GREPAFLOXACIN]
Not Active: IC50 [1] | IC50 (Melanocortin receptor 3) | IC50 [2] | IC50 [3] | IC50 (Cathepsin G) | IC50 [4] | IC50 (Adenosine receptor A2a)

COc1ccccc1OCC(O)CO (stereo not drawn) [GUAIFENESIN]
Not Active: IC50 [1] | IC50 (Melanocortin receptor 3) | IC50 [2] | IC50 [3] | IC50 (Cathepsin G) | IC50 [4] | IC50 (Adenosine receptor A2a)

C[C@]12CCC(=O)C=C1CC[C@@H]1[C@@H]2[C@@H](O)C[C@@]2(C)[C@H]1CC[C@]2(O)C(=O)CO [HYDROCORTISONE]
Not Active: IC50 [1] | IC50 (Melanocortin receptor 3) | IC50 [2] | IC50 [3] | IC50 (Cathepsin G) | IC50 [4] | IC50 (Adenosine receptor A2a)

C/C=C\c1ccc(O)c(OC)c1 [ISOEUGENOL]
Not Active: IC50 [1] | IC50 (Melanocortin receptor 3) | IC50 [2] | IC50 [3] | IC50 (Cathepsin G) | IC50 [4] | IC50 (Adenosine receptor A2a)

NC[C@H]1O[C@H](O[C@H]2[C@H](O)[C@@H](O[C@H]3O[C@H](CO)[C@@H](O)[C@H](N)[C@H]3O)[C@H](N)C[C@@H]2N)[C@H](O)[C@@H](O)[C@@H]1O [KANAMYCIN]
Not Active: IC50 [1] | IC50 (Melanocortin receptor 3) | IC50 [2] | IC50 [3] | IC50 (Cathepsin G) | IC50 [4] | IC50 (Adenosine receptor A2a)

CC[C@H](C)C(=O)O[C@H]1C[C@@H](C)C=C2C=C[C@H](C)[C@H](CC[C@@H]3C[C@@H](O)CC(=O)O3)[C@H]21 [LOVASTATIN]
Not Active: IC50 [1] | IC50 (Melanocortin receptor 3) | IC50 [2] | IC50 [3] | IC50 (Cathepsin G) | IC50 [4] | IC50 (Adenosine receptor A2a)

CC(C(=O)O)c1ccc(CC2CCCC2=O)cc1 (stereo not drawn) [LOXOPROFEN]
Not Active: IC50 [1] | IC50 (Melanocortin receptor 3) | IC50 [2] | IC50 [3] | IC50 (Cathepsin G) | IC50 [4] | IC50 (Adenosine receptor A2a)

Cc1cccc(Nc2ccccc2C(=O)O)c1C [MEFENAMIC ACID]
Not Active: IC50 [1] | IC50 (Melanocortin receptor 3) | IC50 [2] | IC50 [3] | IC50 (Cathepsin G) | IC50 [4] | IC50 (Adenosine receptor A2a)

CC(=O)O[C@]1(C(C)=O)CC[C@H]2[C@@H]3C=C(C)C4=CC(=O)CC[C@]4(C)[C@H]3CC[C@@]21C [MEGESTROL ACETATE]
Not Active: IC50 [1] | IC50 (Melanocortin receptor 3) | IC50 [2] | IC50 [3] | IC50 (Cathepsin G) | IC50 [4] | IC50 (Adenosine receptor A2a)

COc1ccccc1OCC(O)COC(N)=O (stereo not drawn) [METHOCARBAMOL]
Not Active: IC50 [1] | IC50 (Melanocortin receptor 3) | IC50 [2] | IC50 [3] | IC50 (Cathepsin G) | IC50 [4] | IC50 (Adenosine receptor A2a)

CN(Cc1cnc2nc(N)nc(N)c2n1)c1ccc(C(=O)N[C@@H](CCC(=O)O)C(=O)O)cc1 [METHOTREXATE]
Not Active: IC50 [1] | IC50 (Melanocortin receptor 3) | IC50 [2] | IC50 [3] | IC50 (Cathepsin G) | IC50 [4] | IC50 (Adenosine receptor A2a)

COC(=O)c1ccccc1O [METHYL SALICYLATE]
Not Active: IC50 [1] | IC50 (Melanocortin receptor 3) | IC50 [2] | IC50 [3] | IC50 (Cathepsin G) | IC50 [4] | IC50 (Adenosine receptor A2a)

COc1ccc2cc(CCC(C)=O)ccc2c1 [NABUMETONE]
Not Active: IC50 [1] | IC50 (Melanocortin receptor 3) | IC50 [2] | IC50 [3] | IC50 (Cathepsin G) | IC50 [4] | IC50 (Adenosine receptor A2a)

O=C(O)c1cccnc1 [NIACIN]
Not Active: IC50 [1] | IC50 (Melanocortin receptor 3) | IC50 [2] | IC50 [3] | IC50 (Cathepsin G) | IC50 [4] | IC50 (Adenosine receptor A2a)

CNC(=C[N+](=O)[O-])NCCSCc1csc(CN(C)C)n1 [NIZATIDINE]
Not Active: IC50 [1] | IC50 (Melanocortin receptor 3) | IC50 [2] | IC50 [3] | IC50 (Cathepsin G) | IC50 [4] | IC50 (Adenosine receptor A2a)

C[C@]12C/C(=C/O)C(=O)C[C@@H]1CC[C@@H]1[C@@H]2CC[C@@]2(C)[C@H]1CC[C@]2(C)O [OXYMETHOLONE]
Not Active: IC50 [1] | IC50 (Melanocortin receptor 3) | IC50 [2] | IC50 [3] | IC50 (Cathepsin G) | IC50 [4] | IC50 (Adenosine receptor A2a)

CC(C)(CO)C(O)C(=O)NCCCO (stereo not drawn) [PANTHENOL]
Not Active: IC50 [1] | IC50 (Melanocortin receptor 3) | IC50 [2] | IC50 [3] | IC50 (Cathepsin G) | IC50 [4] | IC50 (Adenosine receptor A2a)

COc1ccc(Cc2nccc3cc(OC)c(OC)cc23)cc1OC [PAPAVERINE]
Not Active: IC50 [1] | IC50 (Melanocortin receptor 3) | IC50 [2] | IC50 [3] | IC50 (Cathepsin G) | IC50 [4] | IC50 (Adenosine receptor A2a)

OCCN1CCN(CCCN2c3ccccc3Sc3ccc(Cl)cc32)CC1 [PERPHENAZINE]
Not Active: IC50 [1] | IC50 (Melanocortin receptor 3) | IC50 [2] | IC50 [3] | IC50 (Cathepsin G) | IC50 [4] | IC50 (Adenosine receptor A2a)

CCCCC1C(=O)N(c2ccccc2)N(c2ccccc2)C1=O [PHENYLBUTAZONE]
Not Active: IC50 [1] | IC50 (Melanocortin receptor 3) | IC50 [2] | IC50 [3] | IC50 (Cathepsin G) | IC50 [4] | IC50 (Adenosine receptor A2a)

Cc1cccc(Nc2cc(Cl)nc(SCC(=O)O)n2)c1C [PIRINIXIC ACID]
Not Active: IC50 [1] | IC50 (Melanocortin receptor 3) | IC50 [2] | IC50 [3] | IC50 (Cathepsin G) | IC50 [4] | IC50 (Adenosine receptor A2a)

CC[C@H](C)C(=O)O[C@H]1C[C@H](O)C=C2C=C[C@H](C)[C@H](CC[C@@H](O)C[C@@H](O)CC(=O)O)[C@H]21 [PRAVASTATIN]
Not Active: IC50 [1] | IC50 (Melanocortin receptor 3) | IC50 [2] | IC50 [3] | IC50 (Cathepsin G) | IC50 [4] | IC50 (Adenosine receptor A2a)

CC(C)(Sc1cc(C(C)(C)C)c(O)c(C(C)(C)C)c1)Sc1cc(C(C)(C)C)c(O)c(C(C)(C)C)c1 [PROBUCOL]
Not Active: IC50 [1] | IC50 (Melanocortin receptor 3) | IC50 [2] | IC50 [3] | IC50 (Cathepsin G) | IC50 [4] | IC50 (Adenosine receptor A2a)

COBALT(II) ACETYLACETONATE
Not Active: IC50 [1] | Ki [1] | IC50 (Melanocortin receptor 3) | Ki (Melanocortin receptor 3) | IC50 [2] | Ki [2] | IC50 [3] | Ki [3] | IC50 (Cathepsin G) | Ki (Cathepsin G) | IC50 [4] | Ki [4] | IC50 (Adenosine receptor A2a) | Ki (Adenosine receptor A2a)

INSULIN HUMAN
Not Active: IC50 [1] | Ki [1] | IC50 (Melanocortin receptor 3) | Ki (Melanocortin receptor 3) | IC50 [2] | Ki [2] | IC50 [3] | Ki [3] | IC50 (Cathepsin G) | Ki (Cathepsin G) | IC50 [4] | Ki [4] | IC50 (Adenosine receptor A2a) | Ki (Adenosine receptor A2a)

POLYVINYL ALCOHOL
Not Active: IC50 [1] | Ki [1] | IC50 (Melanocortin receptor 3) | Ki (Melanocortin receptor 3) | IC50 [2] | Ki [2] | IC50 [3] | Ki [3] | IC50 (Cathepsin G) | Ki (Cathepsin G) | IC50 [4] | Ki [4] | IC50 (Adenosine receptor A2a) | Ki (Adenosine receptor A2a)
